{
  "source": "patent US9326994B2",
  "about": "“Amine functional polyamides” (GENZYME CORPORATION, priority 2013, dated 2016)",
  "type_in_all_cases": "cell-based",
  "key": {"[1]": {"test_system": "normal human dermal fibroblasts (NHDF)", "description": "(§1) Mammalian cell cytotoxicity assays were performed using two primary human cell lines: renal proximal tubule epithelial cells (RPTEC—Cambrex CC-2553) and normal human dermal fibroblasts (NHDF—Cambrex CC-2509). Cells were plated at 3,000 cells/well (RPTEC) or 5,000 cells/well (NHDF) in 96-well plates and incubated overnight at 37° C. The compounds were added to the wells, and the cells were incubated for 4 days. Alomar Blue was added to one set of plates and incubated for 4 hours. The plates were read when the compound was added (time zero) and at the end of the study. Fluorescence was read using 530 nm (excitation) and 590 nm (emission) according to the manufacturer's instructions."}, "[2]": {"test_system": "renal proximal tubule epithelial cells (RPTEC)", "test": "in vitro", "description": "as §1, with “Cells” for “Mammalian cell cytotoxicity assays were performed using two primary human cell lines: renal proximal tubule epithelial cells (RPTEC—Cambrex CC-2553) and normal human dermal fibroblasts (NHDF—Cambrex CC-2509). Cells”"}, "[3]": {"test_system": "human lung epithelial Carcinoma cell line (A 549)", "test": "Cytotoxicity assay, human lung epithelial cells", "design": "unit not given here", "details": "A 549, 96 hours, CellTiter-Glo"}, "erythrocytes": {"test_system": "erythrocytes", "test": "Erythrocyte lysis assay", "details": "overnight 37° C., hematocrit 1%", "description": "After incubation, the plates were centrifuged and the supernatant transferred to flat-bottomed 96-well plates. The supernatant was assayed using the QuantiChrom Hemoglobin kit according to the manufacturer's instructions. The IC50 values were calculated using GraphPad Prism."}, "Escherichia coli": {"test_system": "Escherichia coli", "test": "Minimum inhibitory concentration assay", "details": "Mueller-Hinton broth, 18-24 hours at 35° C.; unit assumed", "description": "(§2) The minimum inhibitory concentration (MIC) assay determines the lowest concentration of an antimicrobial agent required to inhibit the growth of test organisms after incubation. MIC assays were performed against an internal standard panel of organisms to identify compounds with antimicrobial activity. The MIC assay was subsequently repeated against other specialized microbial panels. Assays were conducted against the following clinically relevant microorganisms: Staphylococcus aureus subsp. aureus, Staphylococcus epidermis, Escherichia coli, Pseudomonas aeruginosa, Haemophilius influenzae. The compounds were tested for bacteriocidal activity, time course of killing, toxicity against tissue culture cells grown in vitro, and in some cases were tested for antimicrobial activity in vivo. The MIC assays were performed according to the Performance Standards for Antimicrobial Susceptibility Testing, 2006, vol. M100-S15, Fifteenth Informational Supplement, NCCLS, 940 West Valley Road, Suite 1400, Wayne, Pa. 19087. […] The solution was then filter-sterilized through a 0.22 μm filter. Two-fold serial dilutions of polymer were prepared in Mueller-Hinton broth with cations aliquotted into 96-well microtiter plates. The plates were then inoculated with 5×10^5 cells/mL of target organism and incubated 18-24 hours at 35° C. […] The MIC value is the lowest concentration of compound that inhibits growth; accordingly, a higher MIC value indicates less potency where a lower MIC valued indicated more potency."}, "Haemophilus influenzae": {"test_system": "Haemophilus influenzae", "test": "Minimum inhibitory concentration assay", "details": "Mueller-Hinton broth, 18-24 hours at 35° C.; unit assumed", "description": "as §2"}, "Pseudomonas aeruginosa": {"test_system": "Pseudomonas aeruginosa", "test": "Minimum inhibitory concentration assay", "details": "Mueller-Hinton broth, 18-24 hours at 35° C.; unit assumed", "description": "as §2"}, "[4]": {"test_system": "Staphylococcus aureus subsp. aureus", "test": "Minimum inhibitory concentration assay", "details": "Mueller-Hinton broth, 18-24 hours at 35° C.; unit assumed", "description": "as §2"}, "Staphylococcus epidermis": {"test_system": "Staphylococcus epidermis", "test": "Minimum inhibitory concentration assay", "details": "Mueller-Hinton broth, 18-24 hours at 35° C.; unit assumed", "description": "as §2"}, "in vitro": {"test": "in vitro", "details": "human", "description": "as §1, with “Cells” for “Mammalian cell cytotoxicity assays were performed using two primary human cell lines: renal proximal tubule epithelial cells (RPTEC—Cambrex CC-2553) and normal human dermal fibroblasts (NHDF—Cambrex CC-2509). Cells”"}},
  "data": [
    {"compound": "Poly(4,4′-dipiperidinebispropionic acid-1,4-diaminobutane)", "values": [
      {"measurement": "Cytotoxicity (Human Dermal Fibroblast IC50)", "setting": "[1]", "result": 5}
    ]},
    {"compound": "Poly(4,4-trimethylene dipiperidinebispropanoic acid 4,4′-dipiperidine)", "values": [
      {"measurement": "Cytotoxicity (Human Dermal Fibroblast IC50)", "setting": "[1]", "result": 2.0}
    ]},
    {"compound": "Poly(4,4′-trimethylene dipiperidinebispropanoic acid-1,4-benzyldiamine)", "values": [
      {"measurement": "Cytotoxicity (Human Dermal Fibroblast IC50)", "setting": "[1]", "result": 4.703}
    ]},
    {"compound": "Poly(4,4-trimethylene dipiperidinebispropanoic acid-N(2-aminoethyl)-diaminoethane)", "values": [
      {"measurement": "Cytotoxicity (Human Dermal Fibroblast IC50)", "setting": "[1]", "result": 1.7}
    ]},
    {"compound": "Methyl ester terminated Poly(4,4-trimethylene dipiperidinebispropanoic acid-diaminopropane)", "values": [
      {"measurement": "Cytotoxicity (Kidney Epithelial IC50)", "setting": "[2]", "result": 1.5, "unit": "µg/mL"}
    ]},
    {"compound": "4,4′-trimethylene dipiperidinebispropanoic acid-diaminopropane pentamer", "values": [
      {"measurement": "Lung Epi IC50", "setting": "[3]", "result": 259.0},
      {"measurement": "Erythrocyte Lysis (Hemolysis IC50)", "setting": "erythrocytes", "result": ">3200"},
      {"measurement": "Escherichia coli (MIC)", "setting": "Escherichia coli", "result": 16, "unit": "µg/mL"},
      {"measurement": "Haemophilus influenzae (MIC)", "setting": "Haemophilus influenzae", "result": 64, "unit": "µg/mL"},
      {"measurement": "Pseudomonas aeruginosa (MIC)", "setting": "Pseudomonas aeruginosa", "result": "> 128", "unit": "µg/mL"},
      {"measurement": "Staphylococcus aureus subsp. aureus (MIC)", "setting": "[4]", "result": 16, "unit": "µg/mL"},
      {"measurement": "Staphylococcus epidermis (MIC)", "setting": "Staphylococcus epidermis", "result": 1, "unit": "µg/mL"}
    ]},
    {"compound": "Poly(4,4′-trimethylenedipiperidinebispropionic acid-bis(4-aminobutyl)ether)", "values": [
      {"measurement": "Cytotoxicity (Human Dermal Fibroblast IC50)", "setting": "[1]", "result": 3}
    ]},
    {"compound": "Poly(4,4′-trimethylenedipiperidinebispropionic acid-2-dydroxy 1,3-diaminopropane)", "values": [
      {"measurement": "Cytotoxicity (Human Dermal Fibroblast IC50)", "setting": "[1]", "result": 50}
    ]},
    {"compound": "Poly(piperazinebispropanoic acid-2,2-diaminodiethylamine)", "values": [
      {"measurement": "Cytotoxicity (Human Dermal Fibroblast IC50)", "setting": "[1]", "result": 1111.6}
    ]},
    {"compound": "Poly(piperazinebispropanoic acid-3,3′ diamino-N-methyl-dipropylamine)", "values": [
      {"measurement": "Cytotoxicity (Kidney Epithelial IC50)", "setting": "[2]", "result": 5.3, "unit": "µg/mL"}
    ]},
    {"compound": "4-guanidinobenzene terminated Poly(4,4-trimethylene dipiperidinebispropanoic acid-diaminopropane)", "values": [
      {"measurement": "Cytotoxicity (Kidney Epithelial IC50)", "setting": "[2]", "result": 6, "unit": "µg/mL"}
    ]},
    {"compound": "Poly(4,4′-dipiperidinebispropanoic acid-3,3′-diamino-N-methyl-dipropylamine) [Poly(4,4′-dipiperidinebispropanoic acid-3,3′-diamino-N-methy] [listing 1 of 2 here]", "values": [
      {"measurement": "Cytotoxicity (Human Dermal Fibroblast IC50)", "setting": "[1]", "result": 3}
    ]},
    {"compound": "4,4′-trimethylene dipiperidinebispropanoic acid-diaminopropane heptamer", "values": [
      {"measurement": "Cytotoxicity (Kidney Epithelial IC50)", "setting": "[2]", "result": 190, "unit": "µg/mL"},
      {"measurement": "Lung Epi IC50", "setting": "[3]", "result": 418.0},
      {"measurement": "Erythrocyte Lysis (Hemolysis IC50)", "setting": "erythrocytes", "result": ">3200"},
      {"measurement": "Escherichia coli (MIC)", "setting": "Escherichia coli", "result": 8, "unit": "µg/mL"},
      {"measurement": "Haemophilus influenzae (MIC)", "setting": "Haemophilus influenzae", "result": 128, "unit": "µg/mL"},
      {"measurement": "Pseudomonas aeruginosa (MIC)", "setting": "Pseudomonas aeruginosa", "result": "> 128", "unit": "µg/mL"},
      {"measurement": "Staphylococcus aureus subsp. aureus (MIC)", "setting": "[4]", "result": 2, "unit": "µg/mL"},
      {"measurement": "Staphylococcus epidermis (MIC)", "setting": "Staphylococcus epidermis", "result": 1, "unit": "µg/mL"}
    ]},
    {"compound": "Poly(piperazinebispropanoic acid-1,4-diaminobutane)", "values": [
      {"measurement": "Cytotoxicity (Human Dermal Fibroblast IC50)", "setting": "[1]", "result": 1905}
    ]},
    {"compound": "Poly (4,4′-trimethylene dipiperidine bispropanoic acid-4,4′-trimethylene dipiperidine)", "values": [
      {"measurement": "Cytotoxicity (Human Dermal Fibroblast IC50)", "setting": "[1]", "result": 3}
    ]},
    {"compound": "Poly(4,4-trimethylene dipiperidinebispropanoic acid-diaminopropane)", "values": [
      {"measurement": "Cytotoxicity (Human Dermal Fibroblast IC50)", "setting": "[1]", "result": 141.3}
    ]},
    {"compound": "Poly(piperazinebispropanoic acid-N(3-aminopropyl)1,3-propanediamine)", "values": [
      {"measurement": "Cytotoxicity (Human Dermal Fibroblast IC50)", "setting": "[1]", "result": 15.3}
    ]},
    {"compound": "Poly(4,4′-dipiperidinebispropanoic acid-3,3′-diamino-dipropylamine) [Poly(4,4′-dipiperidinebispropanoic acid-3,3′-diamino-dipropy]", "values": [
      {"measurement": "Cytotoxicity (Human Dermal Fibroblast IC50)", "setting": "[1]", "result": 2}
    ]},
    {"compound": "NCCCNC(=O)CCN1CCC(CCCC2CCN(CCC(=O)NCCCN)CC2)CC1", "note": "[4,4-trimethylene dipiperidinebispropanoic acid-diaminopropane]", "values": [
      {"measurement": "CC50 at 4 days", "setting": "in vitro", "result": "> 512", "unit": "µg/mL"},
      {"measurement": "IC50 at 4 days", "setting": "in vitro; RPTEC, 4 days incubation, Alomar Blue, read-out: Cytotoxicity (Kidney Epithelial IC50)", "result": "> 512", "unit": "µg/mL"},
      {"measurement": "IC50", "setting": "erythrocytes; Erythrocyte, read-out: Erythrocyte Lysis (Hemolysis IC50)", "result": "> 3200", "unit": "µg/mL"},
      {"measurement": "Escherichia coli (MIC)", "setting": "Escherichia coli", "result": "> 128", "unit": "µg/mL"},
      {"measurement": "Haemophilus influenzae (MIC)", "setting": "Haemophilus influenzae", "result": "> 128", "unit": "µg/mL"},
      {"measurement": "Pseudomonas aeruginosa (MIC)", "setting": "Pseudomonas aeruginosa", "result": "> 128", "unit": "µg/mL"},
      {"measurement": "Staphylococcus aureus subsp. aureus (MIC)", "setting": "[4]", "result": "> 128", "unit": "µg/mL"},
      {"measurement": "Staphylococcus epidermis (MIC)", "setting": "Staphylococcus epidermis", "result": "> 128", "unit": "µg/mL"}
    ]},
    {"compound": "Poly(4,4′-dipiperidinebispropanoic acid-3,3′-diamino-N-methyl-dipropylamine) [Poly(4,4′-dipiperidinebispropanoic acid-3,3′-diamino-N-methy] [listing 2 of 2 here]", "values": [
      {"measurement": "Cytotoxicity (Human Dermal Fibroblast IC50)", "setting": "[1]", "result": 2}
    ]},
    {"compound": "Poly(4,4′-dipiperidinebispropionic acid-1,3-diaminopropane)", "values": [
      {"measurement": "Cytotoxicity (Human Dermal Fibroblast IC50)", "setting": "[1]", "result": 7}
    ]},
    {"compound": "Poly(piperazinebispropanoic acid-N-methyl-2,2-diaminodiethylamine)", "values": [
      {"measurement": "Cytotoxicity (Human Dermal Fibroblast IC50)", "setting": "[1]", "result": 3068.6}
    ]},
    {"compound": "Poly (4,4′-trimethylene dipiperidine bispropanoic acid--N,N′-dimethyl-1,3-diaminopropane)", "values": [
      {"measurement": "Cytotoxicity (Human Dermal Fibroblast IC50)", "setting": "[1]", "result": 5}
    ]},
    {"compound": "Carboxy terminated Poly(4,4-trimethylene dipiperidinebispropanoic acid-diaminopropane)", "values": [
      {"measurement": "Cytotoxicity (Kidney Epithelial IC50)", "setting": "[2]", "result": 43, "unit": "µg/mL"}
    ]},
    {"compound": "Poly(4,4-trimethylene dipiperidine bispropanoic acid-diaminoethane)", "values": [
      {"measurement": "Cytotoxicity (Human Dermal Fibroblast IC50)", "setting": "[1]", "result": 178}
    ]},
    {"compound": "Poly(4,4′-trimethylenedipiperidine-1,3-diamninopropane-N,N′-di-3-propionic acid)", "values": [
      {"measurement": "Cytotoxicity (Kidney Epithelial IC50)", "setting": "[2]", "result": 2, "unit": "µg/mL"},
      {"measurement": "Cytotoxicity (Human Dermal Fibroblast IC50)", "setting": "[1]", "result": 2}
    ]}
  ]
}
